This is an account of results in patent US5635514A, “Heteroaralkyl and heteroarylthioalkyl thiophenolic compounds as 5-lipoxgenase inhibitors” (G. D. Searle & Company, priority 1994, dated 1997).

Assay [1] deals with Thromboxane production by calcium ionophore stimulated human blood. Description: Human Whole Blood Assay, thromboxane production (calcium ionophore stimulated). Type of assay: cell-based. The following applies: calcium ionophore A23187, thromboxane. The method, then:
(§1) (c) LTB4 and Thromboxane Production by Calcium Ionophore Stimulated Human Blood--Human Whole Blood LTB4 Assay
(§2) The compounds of the present invention were evaluated with respect to 5-lipoxygenase inhibition according to the Human Whole Blood LTB4 Assay described below.
(§3) Human whole blood was collected in heparin containing Vacutainer brand tubes. The blood was diluted with RPMI-1640 cell culture media [1:4] (Gibco, Grand Island, N.Y.) and 200 microliters were added per well in 96 well microtiter plates. Compounds of the present invention diluted in dimethylsulfoxide were added to the blood and allowed to incubate for 15 minutes at 37° C. in a humidified incubator. Calcium ionophore A23187 [20 mcg/ml final concentration, Sigma Chemical Co., St. Louis, Mo.] was added, and the incubation was continued for 10 minutes. The incubation was terminated by centrifugation [833 g, 10 minutes at 4° C.]. Supernatants were analyzed for LTB4 and thromboxane by commercially available enzyme-linked immunoassays [Caymen Chemical Co., Ann Arbor, Mich.]. Test compounds which inhibit 5-lipoxygenase in this assay inhibit the formation of LTB4 and cause reduced levels of this agent in the supernatant.
(§4) The results of this assay are expressed in terms of activity with respect to 5-lipoxygenase inhibition as an IC50 value (50% inhibitory concentration).

Assay [2] concerns the target T1, Human recombinant 5-lipoxygenase (Homo sapiens, UniProt P09917).
T1 construct: made in house; host or cells: E. coli
T1 sequence (P09917 1-674): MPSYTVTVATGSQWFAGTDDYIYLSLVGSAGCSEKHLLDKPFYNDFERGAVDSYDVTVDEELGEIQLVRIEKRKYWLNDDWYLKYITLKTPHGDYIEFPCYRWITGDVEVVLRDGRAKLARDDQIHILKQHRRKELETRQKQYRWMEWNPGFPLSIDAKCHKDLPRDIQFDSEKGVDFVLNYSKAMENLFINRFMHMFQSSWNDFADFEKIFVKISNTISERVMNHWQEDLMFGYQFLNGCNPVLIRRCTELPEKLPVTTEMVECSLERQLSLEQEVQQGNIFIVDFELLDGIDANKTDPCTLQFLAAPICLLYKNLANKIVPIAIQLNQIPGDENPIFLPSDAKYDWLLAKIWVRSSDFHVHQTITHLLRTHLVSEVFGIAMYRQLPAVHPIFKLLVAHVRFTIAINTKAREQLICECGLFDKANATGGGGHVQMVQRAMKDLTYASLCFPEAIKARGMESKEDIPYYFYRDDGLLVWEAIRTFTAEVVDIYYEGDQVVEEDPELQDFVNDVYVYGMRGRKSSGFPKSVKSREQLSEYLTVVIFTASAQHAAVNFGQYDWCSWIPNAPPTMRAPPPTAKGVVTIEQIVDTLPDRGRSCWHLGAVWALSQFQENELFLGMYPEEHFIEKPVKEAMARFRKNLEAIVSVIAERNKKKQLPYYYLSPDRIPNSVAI
Description: Recombinant 5-Lipoxygenase Inhibition Assay. The following applies: 25° C., 8 minutes, absorbance at 240 nm. It is filed as biochemical. As for the experimental part: The compounds of the present invention were evaluated with respect to 5-lipoxygenase inhibition according to the Recombinant 5-Lipoxygenase Inhibition Assay described below.
Human 5-lipoxygenase expressed in E. coli as a soluble protein was prepared in the manner described by M. Noguchi et al., "Expression of Human 5-Lipoxygenase cDNA in E. coli," FEBS Letters, Vol. 249, No. 2, 267-270 (1989), which is incorporated herein by reference. The human 5-lipoxygenase was partially purified by ion exchange chromatography and stored in 50 mM Tris-HCl buffer (pH 8.1) containing 150 mM NaCl, 2 mM EDTA, 2 mM DTT, and 50% glycerol at -70° C. before use.
The following solutions were prepared as indicated: CaCl2 /ATP, 12.5 mM CaCl2 and 5 mM ATP in H2 O; arachidonic acid, 4 mM in ethanol; potassium phosphate buffer, 50 mM potassium phosphate and 0.1 mM EDTA, pH 7.2. Test compounds were first prepared at 10 mM in DMSO and further diluted to desirable concentrations with DMSO.
The assay was carried out in a quartz cuvette to which 15 μl CaCl2 /ATP, 7.5 μl arachidonic acid, 7.5 μl ethanol or test compound, and 710 μl potassium phosphate buffer, in that order, were added and mixed. The mixture was prewarmed to 25° C. The enzymatic reaction was started by adding 10 μl of 5-lipoxygenase enzyme (~0.2 mg protein), and the formation of the reaction product 5-HPETE/5-HETE at 25° C. for 8 minutes was determined by measuring the increase in the absorbance at 240 nm using a Beckman DU-7 spectrophotometer.
The results for this assay are expressed in terms of activity with respect to 5-lipoxygenase inhibition as an IC50 value (50% inhibitory concentration).

Assay [3] relates to LTB4 production by calcium ionophore stimulated human blood. Description: Human Whole Blood LTB4 Assay (calcium ionophore stimulated LTB4 production). It is filed as cell-based. The conditions noted are these: calcium ionophore A23187, LTB4. As for the experimental part:
as §1, §2, §3, §4

The subject of assay [4] is TPA-induced ear inflammation (Mouse, Ear). Description: Tetradecanoylphorbol Acetate (TPA) Assay (TPA-induced mouse ear inflammation). The following applies: 50 mpk, ip + 120 minute; for TPA Edema (% Inhibition): ear thickness. It is filed as in vivo. The method, then: The compounds of the present invention were evaluated with respect to 5-lipoxygenase inhibition according to the Tetradecanoylphorbol Acetate (TPA) Assay which is described in Rao et al., "Comparative Evaluation of Arachidonic Acid (AA)--And Tetradecanoylphorbol Acetate (TPA)-Induced Dermal Inflammation." Inflammation, Vol. 17, No. 6, 723-741 (1993), which is incorporated herein by reference.
In this study, selective 5-lipoxygenase inhibitors, such as zileuton, MK-886, LTB4 and LTD4 receptor […] were evaluated in acute inflammatory responses elicited by the topical application of TPA to the ears of mice. The increases in edema and myeloperoxidase (MPO) were used as readouts of inflammatory responses.
Animals. Female BALB/c mice (17-25 g; Jackson Labs, Bar Barbor, Me.) or male Swiss Webster mice (Charles River, Portage, Mich.) were used in the studies. The animals were housed in a vivarium with a 12-hour lighting schedule (0600-1800 hours on) with free access to food and water. Housing and experimental procedures were conducted according to institutionally approved (Monsanto, St. Louis, Mo. and National Institute of Health) guidelines.
Drugs and Reagents. Hexadecyltrimethylammonium bromide (HTAB), and TPA were purchased from Sigma Chemical Co. (St. Louis, Mo.). Human polymorphonuclear leukocyte myeloperoxidase (20 units/mg protein) was obtained from Calbiochem (San Diego, Calif.). One unit of MPO was defined as the activity of the enzyme that oxidizes 1 μmol of hydrogen peroxide per minute at 25° C.
TPA Inflammation Model. […] Four hours following the application of TPA, increases in ear thickness were measured and ears were excised for MPO measurements.
Measurement of MPO. […] The rate of change of absorbance was monitored in kinetic mode by a plate reader (Molecular Devices, Menlo Park, Calif.). Levels of MPO in lavage samples were determined from the calibration curves using human neutrophil MPO as the reference standard. The levels of MPO were expressed as milliunits per ear. […]

By IC50 is commonly meant the concentration that gives 50% inhibition.

Consider `CC(C)(C)c1cc(SCCCn2cnc3ccncc32)cc(C(C)(C)C)c1O` [Compound 15, 2,6-bis(1,1-dimethylethyl)-4-[[3-(1H-imidazo[5,4-c]pyridin-1-yl]propyl]thio]phenol], for which the IC50 in assay [1] was 14.4 µM; in assay [2], 0.49 ± 0.04 µM; in assay [3], 6.27 µM.
For the compound `CC(C)(C)c1cc(SCCn2ccc3ncnc-3c2)cc(C(C)(C)C)c1O` [Compound 8, 2,6-bis(1,1-dimethylethyl)-4-[[2-(5H-imidazo-[4,5-c]pyridin-5-yl)ethyl]thio]phenol Hydrate], the 50% inhibitory concentration (IC50) in assay [2] is 4.48 ± 0.36 µM.
For `CC(C)(C)c1cc(SCCSc2nc3ccccc3o2)cc(C(C)(C)C)c1O` [Compound 26, 2,6-bis(1,1-dimethylethyl)-4-[[2-[(1,3-benzoxazol-2-yl)thio]ethyl]thio]phenol Hydrate], the IC50 worked out at 9.1 µM in assay [1], 0.93 ± 0.16 µM in assay [2] and 11.1 µM in assay [3].
As for `CC(C)(C)c1cc(SCCCn2cnc3ncccc32)cc(C(C)(C)C)c1O` [Compound 19, 2,6-bis(1,1-dimethylethyl)-4-[[3-1H-imidazo[4,5-b]pyridin-1-yl)propyl]thio]-phenol Hydrate], the values for the IC50 in assay [1], in assay [2] and in assay [3] were above 39 µM, 0.36 ± 0.07 µM and 6.62 µM, respectively.
Turning to `CC(C)(C)c1cc(SCCCn2cnc3cccnc32)cc(C(C)(C)C)c1O` [Compound 18, (2,6-bis(1,1-dimethylethyl)-4-[[3-(1H-imidazo[5,4-b]pyridin-1-yl)propyl]thio]phenol Hydrate], the IC50 in assay [2] is 0.32 ± 0.02 µM.
For the compound `CC(C)(C)c1cc(SCCCn2ccc3ccccc32)cc(C(C)(C)C)c1O` [Compound 24, 2,6-bis(1,1-dimethylethyl)-4-[[3-(1H-indol-1-yl)propyl]thio]phenol Hydrate], in assay [2], the IC50 was determined as 0.48 ± 0.09 µM.
With `CC(C)(C)c1cc(SCC(O)Cn2ccc3ncnc-3c2)cc(C(C)(C)C)c1O` (racemic) [Compound 27, (±) 2,6-bis(1,1-dimethylethyl)-4-[[2-hydroxy-3-(5H-imidazo[4,5-c]pyridin-5-yl]propylthio]phenol Hydrate], the IC50 in assay [1] was found to be 37.3 µM; in assay [2] it was 1.1 ± 0.23 µM; in assay [3], 7.42 µM. Moreover, in assay [4], the “TPA Edema (% Inhibition)” value came out at 46%.
As to `CC(C)(C)c1cc(SCCCCn2ccc3ncnc-3c2)cc(C(C)(C)C)c1O` [Compound 14, 2,6-bis(1,1-dimethylethyl)-4-[[4-(5H-imidazo-[4,5-c]pyridin-5-yl)butyl]thiophenol Hydrate], the IC50 in assay [2] is 0.41 ± 0.02 µM.
In the case of `CC(C)(C)c1cc(SCCCn2cnc3cnccc32)cc(C(C)(C)C)c1O` [Compound 16, 2,6-bis(1,1-dimethylethyl)-4-[[3-(1H-imidazo[4,5-c]pyridin-1-yl)propyl]thio]phenol], the IC50 in assay [2] was 0.34 ± 0.1 µM.
As for `CC(C)(C)c1cc(SCc2nc3cccnc3[nH]2)cc(C(C)(C)C)c1O` [Compound 29, 2,6-bis(1,1-dimethylethyl)-4-[[(3H-imidazo-[4,5-b]pyridin-2-yl)methyl]thio]phenol], the IC50 was 50 µM in assay [1], 1.8 ± 0.3 µM in assay [2] and 20.1 µM in assay [3].
The corresponding values for `CC(C)(C)c1cc(SCCCn2cnc3ccccc32)cc(C(C)(C)C)c1O` [Compound 21, 2,6-bis(1,1-dimethylethyl)-4-[[3-(1H-benzimidazol-1-yl)propyl]thio]phenol] are 18.6 µM, 0.14 ± 0.02 µM and 2.26 µM.
`CC(C)(C)c1cc(SCCCn2ccc3ncnc-3c2)cc(C(C)(C)C)c1O` [Compound 5, 2,6-bis(1,1-dimethylethyl)-4-[[3-(5H-imidazo-[4,5-c]pyridin-5-yl)propyl]thio]phenol]: the IC50 in assay [1] was 50 µM; in assay [2] it was 0.57 ± 0.07 µM; in assay [3] it was 13.3 µM. Also, the “TPA Edema (% Inhibition)” value in assay [4] is listed as 42%. Also, the “TPA MPO (% Inhibition)” value in assay [4] (myeloperoxidase) is reported as 24%.
